In US20190015379A1, “USE OF DIANHYDROGALACTITOL AND ANALOGS AND DERIVATIVES THEREOF, TOGETHER WITH RADIATION, TO TREAT NON-SMALL-CELL CARCINOMA OF THE LUNG AND GLIOBLASTOMA MULTIFORME AND SUPPRESS PROLIFERATION OF CANCER STEM CELLS” (DelMar Pharmaceuticals, Inc., priority 2014, published 2019):

Experiments:
[1] = Tolerability in A549 tumor-bearing Rag2 mice (body weight, CBC, clinical observations)
Procedure: (§1) Tumor growth was monitored by measuring tumor dimensions with calipers beginning on the first day of treatment. Tumor length and width measurements were obtained each Monday, Wednesday, and Friday. Tumor volumes were calculated according to the equation L×W^2/2 with the length (in mm) being defined as the longer axis of the tumor. Animals were weighed at the time of tumor measurement. Tumors were allowed to grow to a maximum of 800 mm^3 before termination.
All animals had blood collected by cardiac puncture at termination for CBC (complete blood count) with differentiation.
In particular, signs of ill-health were based on body weight loss, change in appetite, and behavioral signs such as altered gait, lethargy, and gross manifestations of stress. If signs of severe toxicity or tumor-related illness were seen, the animals were terminated by isoflurane overdose followed by CO2 asphyxiation, and a necropsy was performed to assess other signs of toxicity. The following organs were examined: liver, gall bladder, spleen, lung, kidney, heart, intestine, lymph nodes, and bladder. Any unusual findings were noted.

[2] = test system: A549 human lung adenocarcinoma xenograft tumors; assay: A549 NSCLC xenograft tumor growth in Rag2 mice; assay type: in vivo, female Rag2 mice
Procedure: The purpose of the study reported in this Example is to evaluate the activity of dianhydrogalactitol in in vivo models of drug-resistant NSCLC in comparison to other drugs, including cisplatin. Rag2 mice bearing subcutaneous human lung adenocarcinoma xenograft tumors of either TKI-resistant (H1975) or TKI-sensitive (A549) origin were treated.
Two human NSCLC cell lines, A549 (TKI-sensitive) and H1975 (TKI-resistant), were used as xenograft tumor models in female Rag2 mice. The mice were 6 to 8 weeks of age and weighed 18-23 grams. 10 mice were used per group.
Cisplatin was used in normal saline at a dose of 5 mg/kg. Administration was intravenous.
Dianhydrogalactitol was used in 0.9% sodium chloride for injection at 1.5 mg/kg to 6 mg/kg. Administration was intraperitoneal.
Treatment was initiated at a tumor volume of 100 mm^3 to 150 mm^3.
On day 0, tumor cells were implanted subcutaneously into mice in a volume of 50 μL in Matrigel™ using a 28-gauge needle; injection of the tumor cells was in the back of the mice. Mice were randomly assigned to groups based on tumor volume.
as §1

GBM = conditions: GBM; Eagan (1979), Stupp (2005); cited from earlier work
[3] = Mischler et al. 1979; cited from earlier work
[4] = GBM chemotherapy, historical data; cited from earlier work
[5] = cisplatin 5 mg/kg Q7D x 3 i.v. (group 2)

## N.N.[Cl][Pt][Cl] [cisplatin, reference compound]
[1]; cisplatin 5 mg/kg (group 2)
  body weight loss: body weight loss was observed
[1]; cisplatin 5 mg/kg, 1 mouse unable to receive the last dose
  tolerability of the dosage: may also be near the MTD
[2]; [5]
  day on which a mean tumor volume of 400 mm^3 was reached: 66 days
  number of animals remaining on study on day 70: 6/10
  tumor doubling time: 17
[2]; cisplatin 5 mg/kg Q7D x 3 i.v. (group 2), days post-inoculation
  day on which a mean tumor volume of 200 mm^3 was observed: 49 days
[2]; cisplatin 5 mg/kg i.v. (positive control)
  tumor growth delay compared to untreated controls: 4 days

## O=NN(CCCl)C(=O)NCCCl [Carmustine, carmustine, reference compound]
GBM
  Median O.S. (XRT + Chemo): 40-50 weeks

## O[C@H]([C@H](O)[C@@H](O)CBr)[C@H](O)CBr [dibromodulcitol]
[3]
  absorption by the oral route: rapid and fairly complete

## Cn1nnc2c(C(N)=O)ncn2c1=O [temozolomide, reference compound]
[4]
  DLT: Hematologic
  Nadir: 21 to 28 days
  Recovery: Within 14 days
